{"source": "paper PMC6115637", "about": "(Chemical Science, 2018)", "type_in_all_cases": "cell-based", "key": {"[1]": {"target": "T1, M4 receptor W413A (Homo sapiens, UniProt P08173, W413A)", "T1 sequence (P08173 1-479 W413A)": "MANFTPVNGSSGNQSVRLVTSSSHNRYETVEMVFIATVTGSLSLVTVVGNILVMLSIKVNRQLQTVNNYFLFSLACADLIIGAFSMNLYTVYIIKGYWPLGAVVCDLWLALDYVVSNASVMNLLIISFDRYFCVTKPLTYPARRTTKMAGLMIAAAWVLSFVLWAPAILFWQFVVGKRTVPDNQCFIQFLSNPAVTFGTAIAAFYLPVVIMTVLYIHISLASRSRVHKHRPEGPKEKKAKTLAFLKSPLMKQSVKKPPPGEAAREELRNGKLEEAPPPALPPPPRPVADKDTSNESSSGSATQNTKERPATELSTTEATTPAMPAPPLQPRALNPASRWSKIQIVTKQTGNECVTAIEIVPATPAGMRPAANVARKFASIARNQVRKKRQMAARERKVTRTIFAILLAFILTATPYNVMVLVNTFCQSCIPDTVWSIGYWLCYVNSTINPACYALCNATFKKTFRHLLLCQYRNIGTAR", "assay": "Split luciferase biosensor cAMP assay for Gi activation, M4 mutant W413A"}, "[2]": {"target": "T2, M4 receptor V120A (Homo sapiens, UniProt P08173, V120A)", "T2 sequence (P08173 1-479 V120A)": "T1 sequence (P08173 1-479 W413A) with V120A, A413W", "assay": "Split luciferase biosensor cAMP assay for Gi activation, M4 mutant V120A", "settings": "M4 mutant V120A vs WT"}, "[3]": {"target": "T3, M4 receptor N445A (Homo sapiens, UniProt P08173, N445A)", "T3 sequence (P08173 1-479 N445A)": "T1 sequence (P08173 1-479 W413A) with A413W, N445A", "assay": "Split luciferase biosensor cAMP assay for Gi activation, M4 mutant N445A", "settings": "M4 mutant N445A vs WT"}, "[4]": {"target": "T4, M4 receptor S116A (Homo sapiens, UniProt P08173, S116A)", "T4 sequence (P08173 1-479 S116A)": "T1 sequence (P08173 1-479 W413A) with S116A, A413W", "assay": "Split luciferase biosensor cAMP assay for Gi activation, M4 mutant S116A", "settings": "M4 mutant S116A vs WT"}, "[5]": {"target": "T5, M4 receptor I81A (Homo sapiens, UniProt P08173, I81A)", "T5 sequence (P08173 1-479 I81A)": "T1 sequence (P08173 1-479 W413A) with I81A, A413W", "assay": "Split luciferase biosensor cAMP assay for Gi activation, M4 mutant I81A", "settings": "M4 mutant I81A vs WT"}, "[6]": {"target": "T6, M4 receptor S119A (Homo sapiens, UniProt P08173, S119A)", "T6 sequence (P08173 1-479 S119A)": "T1 sequence (P08173 1-479 W413A) with S119A, A413W", "assay": "Split luciferase biosensor cAMP assay for Gi activation, M4 mutant S119A", "settings": "M4 mutant S119A vs WT"}, "[7]": {"target": "T7, M4 receptor F409A (Homo sapiens, UniProt P08173, F409A)", "T7 sequence (P08173 1-479 F409A)": "T1 sequence (P08173 1-479 W413A) with F409A, A413W", "assay": "Split luciferase biosensor cAMP assay for Gi activation, M4 mutant F409A", "settings": "M4 mutant F409A vs WT"}}, "note": "Positions count from the first letter of the chain named."}
{"smiles": "CC(=O)OCC[N+](C)(C)C", "note": "[ACh, acetylcholine]", "values": [{"measurement": "activity of M4 mutant towards ACh", "setting": "[1]", "result": "completely inactive"}, {"measurement": "change of EC50 compared to WT M4 receptor (printed: increased the EC50)", "setting": "[2]", "result": 16, "unit": "fold"}, {"measurement": "decreased activity compared to WT M4 receptor", "setting": "[3]", "result": "4–14 fold"}, {"measurement": "activity decrease compared to WT M4 receptor", "setting": "[4]", "result": 100, "unit": "times"}, {"measurement": "activity decrease compared to WT M4 receptor", "setting": "[5]", "result": 100, "unit": "times"}, {"measurement": "decreased activity compared to WT M4 receptor", "setting": "[6]", "result": "4–14 fold"}, {"measurement": "decreased activity compared to WT M4 receptor", "setting": "[7]", "result": "4–14 fold"}]}
